Test results from US5773438A, “Synthetic matrix metalloprotease inhibitors and use thereof” (Glycomed Incorporated, priority 1994, dated 1998).
“Also recorded” adds a separate entry of the source.

Tests used:
corneal vessels = assay: inhibition of angiogenesis, rat cornea pellet implant (Walker 256 extract); format: in vivo; settings: 10 mg/mL in 55% DMSO, infused into vena cava 0.8 mL/24 hr, six days
Method: A crude extract (30 mg/mL protein) of Walker 256 carcinoma, a rat malignant tumor, was incorporated into Hydron, a slow release polymer, in 1.5 mm diameter pellets. Pellets were implanted in the stroma of the corneas of anesthetized albino rats. […] Controls received only the DMSO solution. After six days, the animals were re-anesthetized and perfused intra-arterially with India ink in order to visualize the corneal vessels. The eyes were then enucleated and fixed in 5% formalin. Control eyes which received only the DMSO solution show massive vessel growth toward the pellet from the limbus.

[1] = tested on: protease activity in open and chronic wound fluids; assay: Azocoll assay of protease activity in open and chronic wound fluids; format: biochemical, human
Method: Fluids were collected from 3 types of human wounds termed closed spontaneously healing wounds, open slowly healing wounds, and open chronic wounds. In the first category were fluids collected from the chest wall of women following mastectomy surgery. Fluids from non-infected wounds that were left open for valid surgical reasons were considered open slowly healing wounds. An occlusive dressing was placed over the wound bed, and fluids were collected after 2-6 hours of occlusion. Finally, fluids were also collected from chronic open wounds by covering the wounds with occlusive dressings. Wounds were considered to be chronic if they were not clinically infected and had been open and not healing for more than 4 weeks.
The various wound fluids were assayed for matrix metalloproteinase activity using the Azocoll assay essentially as described by Chavira, et al., Analytic Biochemistry (1984), 136:446.
The fluids were centrifuged, and the supernatants filtered using a 0.45μ sterile Gelman filter. The filtrates were stored frozen at -80° C. until tested for protease activity.
The effects of four inhibitors on the protease activity present in wound fluids were determined. The inhibitors were: compounds
These inhibitors were compared to certain other inhibitors and these were UL001 [HSCH2 CH(CH2 CH(CH3)2)CO--Phe--Ala--NH2 ] obtained from Peptides International and MP506, obtained from Elastin Products. EDTA (ethylenediamine tetraacetic acid) and PMSF (phenylmethylsulfonyl fluoride) were also studied.
Briefly, 900 μl of the Azocoll substrate suspension in buffer ([…] in 50 mM TRIS, pH 7.8, 1 mM CaCl2) was added to 1.5 ml microcentrifuge tubes then 50 μl of inhibitor (or buffer) and 50 μl of chronic wound fluid (or collagenase standard) were added to the reaction tube. The reaction tubes were placed at 37° C. in a shaker that inverted the tubes 30 times per minute. After 24 hours of incubation, the reaction tubes were centrifuges at 10,000 X g and the absorbance of the supernatant solution was measured at 520 nm with a Milton-Roy spectrophotometer. Proteolysis of Azocoll substrate generates soluble colored fragments from the insoluble Azocoll substrate. Wound fluid samples were incubated alone or with the inhibitors. Controls included incubation of the Azocoll substrate with the assay buffer to measure spontaneous degradation of the substrate. A standard curve for digestion of the Azocoll substrate was generated by incubation of the Azocoll with crude bacterial collagenase. Protease levels were expressed as net μg of collagenase equivalent per ml of chronic wound fluid. In the figures, certain of the wound fluids are referred to by an individual name.

[2] = tested on: infiltration of neutrophils in the peritoneal cavity; assay: thioglycollate induced peritonitis assay; format: in vivo, Balb/c male mice; settings: 800 μg/ml, 1 ml/animal i.p. at 0.5, 1.0, 2.0 hr; p=0.0141
Method: 6-8 week old Balb/c male mice were used (n=10 each for the treated and control groups). Thioglycollate suspension (5.9 g/l in deionized water) was boiled until the color was golden, then cooled yielding a pink color. The lavage solution consisted of saline supplemented with 0.1% bovine serum albumin (100 mg/100 ml) and 5U heparin/ml.
Cells were collected by lavage at T=3.0 hr. post thioglycollate administration. The animals were euthanized by CO2 asphyxiation, and the abdominal skin was cut with surgical scissors to reveal the peritoneal cavity. Five ml of lavage fluid was injected into the peritoneum, and a suspension was made by gentle massage. The fluid was removed by syringe, recovering about 80% of the injected fluid. Total cell counts in the lavage fluid were determined by Coulter Counter.

B16-F10 murine melanoma = assay: experimental metastasis assay in C57 mice; format: in vivo, Female C57 BL/6 mice; settings: days 35-37; 150 mg/kg/d ip; p<0.05
Method: Female C57 BL/6 mice, 4-6 weeks old (15-20 grams), from Simonsen Laboratories (Gilroy, Calif.) were used for this assay.
The B16-F10 murine melanoma was obtained from the American Type Tissue Culture Collection, and routinely propagated in DMEM (Dulbecco's modified eagles medium)+10% fetal calf serum in plastic tissue culture flasks in a humidified 5% CO2 incubator at 37° C. B16-F10 tumor cells were harvested with trypsin-EDTA (ethylenediamine-tetraacetic acid), washed with PBS (phosphate buffered saline, 2x), resuspended at a concentration of 5×10^5 cells/ml, and held on ice prior to injection. Animals were challenged with 5×10^4 cells in a volume of 0.1 ml intravenously (10 animals/treatment group). Animals were randomly distributed prior to assignment to treatment groups.
Survival times were recorded for animals in the various treatment groups, and results were evaluated using Chi-Squared statistical analysis.

common carotid artery = assay: anti-restenotic assay, balloon catheter injury of common carotid artery; format: in vivo, Male Sprague-Dawley rats
Method: Male Sprague-Dawley rats (3-3.5 months old) were subject to balloon catheter injury of the common carotid artery (Clowes et al. Lab. Invest. (1983) 49:208-215). […] Rats were sacrificed at 4 days after injury. They were injected with 25 mg/kg BrdU subcutaneously at 17, 9 and 1 hours before sacrifice to label replicating vascular smooth muscle cells. A catheter was inserted into the aorta, and the carotids were fixed by perfusion with 4% paraformaldehyde at physiologic pressure. After carefully dissecting out the common carotid, the vessels were embedded in paraffin, cross-sectioned and stained with anti-BrdU antibody and hematoxylin, and an index of medical smooth muscle cell replication was obtained by expressing the % labelled SMCs ([…] et al., J. Clin. Invest. (1992) 90:2044-2049). After fixation, the common carotids were pinned out with the intimal surface facing upwards, and cells present on the intimal surface were stained with an antibody to histone proteins. […] The surface cells were counted and the number of cells per unit area was determined. […] The animals were injected with BrdU before sacrifice to label replicating cells in the media and intima. By 10 days after injury, the normal vessel forms a thickened neointima; smooth muscle migration in to the intima and subsequent proliferation contribute to this thickening. Cross-sections of the vessel were cut and stained with anti-BrdU and hematoxylin. Intimal cross-sectional areas were measured using a computer digitizing system. […] All data are presented as mean+SEM, and the data were analyzed by student's test.

**Q.** Which results are given for `CNC(=O)[C@H](Cc1c[nH]c2ccccc12)NC(=O)[C@@H](CC(=O)NO)CC(C)C` [Compound 5A, N-[D,L-2-isobutyl-3-(N'-hydroxycarbonylamido)-propanoyl]-tryptophan methylamide]?
**A.** corneal vessel growth versus controls (corneal vessels): vessels much shorter and/or much finer than in the controls, barely filling with ink; effect on proteolytic activity of open and chronic wound fluids ([1]; FIG. 5): very effective inhibitors; inhibition of Azocoll-degrading proteases in wound fluids ([1]; FIG. 6): very effectively; also recorded: very effective inhibitors; reduction of proteolytic activity in open or chronic wound fluids ([1]; fluids with high levels of Azocoll-degrading protease activity): 95%; average number of cells in the peritoneum versus vehicle [2]: significantly reduced; survival of mice versus vehicle control (B16-F10 murine melanoma): significant increase in the survival; number of cells per unit area (intimal surface) versus CMC controls (common carotid artery; 4 day, 100 mg/kg i.p. daily): significant decrease; cell migration into the intima (common carotid artery; 4 days after balloon injury): very large decrease; intimal cell replication rate versus controls (common carotid artery; 10 day): significantly higher; lesion thickness (common carotid artery; 10 day): dramatically reduced; intimal cross-sectional area versus CMC controls (common carotid artery; 10 day, daily administration): significant decrease
